Test results: US11021507B2, “Myricetin derivative and preparing method thereof, and application of same for treating colitis, preventing and treating colitis tumorigenesis, and treating colorectal cancer” (MARINE BIOMEDICAL RESEARCH INSTITUTE OF QINGDAO CO., LTD., priority 2016, dated 2021)
Values after ≈ are worked out from the molar mass of the structure shown.

Assays:
[1] = test system: dextran sulfate sodium (DSS)-induced chronic colitis in mice; test: DSS-induced chronic colitis model in mice; type: in vivo, C57BL/6 mice; settings: for Diarrhea (general symptoms) during drug administration / Number of mice with no obvious diarrhea: 100 mg/kg daily, six mice per group; for Diarrhea (general symptoms) during drug administration: 18 days; for Grading scores for chronic inflammation of colon: number of mice colons with score + / Grading scores for chronic inflammation of colon: number of mice colons with score ++ / Grading scores for chronic inflammation of colon: number of mice colons with score 0: 3 mice examined per group, HE staining; for Grading scores for chronic inflammation of colon: number of mice colons with score +: + = slight inflammatory cell infiltration; for Grading scores for chronic inflammation of colon: number of mice colons with score ++: ++ = moderate inflammatory cell infiltration; for Grading scores for chronic inflammation of colon: number of mice colons with score 0: score 0 = no obvious inflammatory cell infiltration; for Colon length compared with model group / Body weight compared with model group: P<0.05; for Body weight compared with model group: FIG. 11
From the text: Determination of the therapeutic effects of myricetin derivative M5, M6 and M7 on dextran sulfate sodium (DSS)-induced chronic colitis in mice
1. Compounds tested and control drugs: myricetin derivative M5, M6 and M7, positive control drug-sulfasalazine (SASP, from Sigma); control drug-myricetin;
Experimental animals: C57BL/6 mice, 20 to 22 g, both male and female, SPF grade provided by Charles River Laboratories, Beijing.
2. DSS-induced chronic colitis model in mice: 36 C57BL/6 mice were randomly divided into six groups, with six mice in each group. DSS (0.5 g) was weighed and dissolved in 50 ml of purified water, for 6 mice to drink in one day. The DSS water was made freshly and was provided at fixed time on a daily basis for 7 days successively, which was then replaced by freshly-made purified drinking water for the next successive 14 days. The same procedure was repeated successively for 3 times. Each group of mice was given the same treatment for the preparation of chronic colitis model. 3. Drug preparation method: 3.1 Solvent control group: 0.5 mL of DMSO was added to 10 mL of 0.5% CMC-Na. 3.2 Myricetin derivative M5 and M6 tested: 100 mg of M5 and M6 each was weighed and dissolved in 0.5 ml of DMSO, and diluted to 10 mL with 0.5% CMC-Na. 3.3 Myricetin derivative M7 tested: 100 mg of M7 was weighed and dissolved in 10 mL of 5% sodium bicarbonate injection. 3.4 Myricetin control: 100 mg of myricetin was weighed and dissolved in 10 mL of 0.5% CMC-Na. 3.5 Sulfasalazine (SASP): 100 mg of SASP was weighed and dissolved in 10 mL of saline. 4. Administration method: the body weight of mice was weighed daily, and drugs were administered 0.01 ml/g (100 mg/kg) consecutively for 18 days. 5. Animal observation and treatment method: body weight, diet, diarrhea (or bloody stools) etc. were observed daily. At the end of the experiment, mice were sacrificed for dissection. The colon and small intestine were dissected out for visual observation and pathological analysis. Pathological examination methods and evaluation criteria: the colons of each group were fixed with 10% formalin followed by routine paraffin embedding, sectioning and HE staining. The degree of colonic inflammation in each group was evaluated under microscope. According to the degree of inflammatory cell infiltration in colonic lamina propria, the following grading criteria were established: level 0, no obvious inflammatory cell infiltration; +(level 1), slight inflammatory cell infiltration; ++(level 2), moderate inflammatory cell infiltration; +++(level 3), severe inflammatory cell infiltration and may be accompanied by necrosis or loss of mucosal cells.
Determination of Therapeutic Effects of Myricetin Derivative M13 and M14 on DSS-Induced Chronic Colitis in Mice
See Example 8 for the experimental method.

[2] = test system: mouse peritoneal macrophage RAW264.7; test: Cytotoxicity / cell proliferation in RAW264.7 macrophages; type: cell-based; settings: incubated 24 hours; dose increased to 20 μM
From the text: Therefore, this series of compounds may be considered suitable for drug development for treating chronic colitis and inflammatory bowel disease.

[3] = Water solubility test (equilibrium solubility in pure water, LC/MS); type: physicochemical; settings: 37° C.; for solubility at 24 h: ultrapure water, thermodynamic from solid
Experimental: Water solubility test for myricetin derivative M5, M6 and M10
Instrument: Waters Alliance e2695 LC/MS; chromatographic column: Waters×Bridge C18 4.6×150 mm.
Appropriate amount of said myricetin derivative was weighed and dissolved in methanol to prepare a solution of 1 mg/ml respectively, which was diluted with methanol to different concentrations of working solution as standard samples for testing.
2. 1 mL of ultrapure water was added into a 1.5 ml transparent EP tube. Appropriate amount of said myricetin derivative was each added into a transparent EP tube, followed by vortex mixation and ultrasonication till the drug was no longer dissolved (the solution appeared cloudy or had suspended particles). The mixture was then placed in an incubating oscillator for shaking at the temperature of (37±1) ° C., 100 r/min, for 24 hours, to achieve a sufficient solubility balance. 24 hours later, the saturated solution was taken out for centrifugation at 3000 r/min for 15 min. The supernatant was immediately filtered through a 0.45 μm microporous membrane, and the initial part of the filtrate was discarded. Samples were added for chromatography. The peak area was measured and the equilibrium solubility of each compound in pure water was calculated using a standard curve.

[4] = test system: azomethane (AOM)/dextran sulfate sodium (DSS)-induced chronic ulcerative colitis and inflammation-associated tumorigenesis; test: AOM/DSS-induced chronic ulcerative colitis and inflammation-associated tumorigenesis in mice; type: in vivo, C57BL/6 mice; settings: 100 mg/kg aspirin or myricetin; M10 25-100 mg/kg; 12 weeks; FIG. 8
From the text: Determination of therapeutic effect of myricetin derivative M10 on azomethane (AOM)/dextran sulfate sodium (DSS)-induced chronic ulcerative colitis and inflammation-associated tumorigenesis.
Compound tested and control drugs: myricetin derivative M10, control compound myricetin, aspirin (Sigma).
Experimental animals: C57BL/6 mice, 20 to 22 g, both male and female, SPF grade provided by Beijing Vital Lihua Experimental Animal Company, and mice were fed with standard animal feed.
Animal models of AOM/DSS-induced chronic colitis and inflammation-associated tumorigenesis: 48 C57BL/6 mice were randomly divided into six groups with eight mice in each group, including model group, for which 0.5% CMC-Na was administered intragastrically every day; aspirin group, for which 100 mg/kg of aspirin (dissolved in 0.5% CMC-Na) was administered intragastrically; myricetin control group, for which 100 mg/kg of myricetin (dissolved in 0.5% CMCNa) was administered intragastrically; M10 high dose group, for which 100 mg/kg of M10 (dissolved in pure water) was administered intragastrically; M10 medium dose group, for which 50 mg/kg of M10 (dissolved in pure water) was administered intragastrically; M10 low dose group, for which 25 mg/kg of M10 (dissolved in pure water) was administered intragastrically.
Preparation of chronic ulcerative colitis mice model: said groups of mice were intraperitoneally injected with 10 mg/kg of azoxymethane (AOM) on day one. Purified drinking water containing 2% dextran sulfate sodium (DSS) was freshly made and provided on day one and on the next six consecutive days, the replaced by purified drinking water for the next seven consecutive days. The above procedure was then repeated for 3 more times.
M10-treated group: 200 mg of M10 was weighed and dissolved in 10 mL of 0.5% CMC-Na solution (20 mg/mL), and consecutively diluted 2 times and 5 times for future use. 0.2 mL of each prepared solutions was given intragastrically to mice (the body weight was assumed as 20 g per mouse), namely divided into high, medium or small dose groups. Myricetin control group: 200 mg of myricetin was weighed and dissolved in 10 mL of 0.5% CMC-Na. Aspirin-treated group: 200 mg of aspirin was weighed and dissolved in 10 mL of 0.5% CMC-Na. Administration method: The body weight of mice was measured daily, and drugs were administered at 0.01 mL/g (100 mg/kg) per day for 12 consecutive weeks. 4. Animal observation and treatment methods: weight, diet, diarrhea (or bloody stools) etc. were observed daily.
At the end of the experiment, mice were sacrificed. The colon and small intestine were dissected out for visual observation and pathological analysis. Pathological examination methods and evaluation criteria: the mice colons of each group were fixed with 10% formalin, followed by routine paraffin embedding, sectioning and HE staining. The developmental degree of colonic inflammation and colon cancer in each group of mice was evaluated under microscopic observation.

[5] = 100 mg/kg for 18 days, end of experiment, FIG. 2
[6] = Example 17, method of Example 8
[7] = Example 17, method of Example 8, FIG. 12

Structure (SMILES): CC(=O)OC[C@H]1O[C@@H](O[C@H]2[C@H](OC(C)=O)[C@@H](OC(C)=O)[C@H](Oc3c(-c4cc(OCc5ccccc5)c(OCc5ccccc5)c(OCc5ccccc5)c4)oc4cc(OCc5ccccc5)cc(O)c4c3=O)O[C@@H]2COC(C)=O)[C@H](OC(C)=O)[C@@H](OC(C)=O)[C@H]1OC(C)=O [M5]
- Diarrhea (general symptoms) during drug administration [1]: no significant reduction in diarrhea
- Grading scores for chronic inflammation of colon: number of mice colons with score + ([1]; 100 mg/kg for 18 days): 1
- Grading scores for chronic inflammation of colon: number of mice colons with score ++ ([1]; 100 mg/kg for 18 days): 2
- Inhibitory effect on cell proliferation (cytotoxic effect) [2]: no significant inhibitory effect
- Solubility (in words) ([3]; 24 h, per Table 2): very low
- solubility at 24 h [3]: < 0.1 µg/mL

Structure (SMILES): CC(=O)OC[C@H]1O[C@@H](O[C@H]2[C@H](OC(C)=O)[C@@H](OC(C)=O)[C@H](Oc3c(-c4cc(O)c(O)c(O)c4)oc4cc(O)cc(O)c4c3=O)O[C@@H]2COC(C)=O)[C@H](OC(C)=O)[C@@H](OC(C)=O)[C@H]1OC(C)=O [M6]
- Diarrhea (general symptoms) during drug administration [1]: slight reduction in diarrhea
- Number of mice with no obvious diarrhea [1]: 1-2 mice
- Grading scores for chronic inflammation of colon: number of mice colons with score + ([1]; 100 mg/kg for 18 days): 2
- Grading scores for chronic inflammation of colon: number of mice colons with score 0 ([1]; 100 mg/kg for 18 days): 1
- Colon length compared with model group [1, 5]: significantly longer
- Inhibitory effect on cell proliferation (cytotoxic effect) [2]: no significant inhibitory effect
- solubility at 24 h [3]: 1.4 µg/mL (≈ 1.49 µM)

Structure (SMILES): O=c1c(O[C@@H]2O[C@H](CO)[C@@H](O[C@@H]3O[C@H](CO)[C@H](O)[C@H](O)[C@H]3O)[C@H](O)[C@H]2O)c(-c2cc(O)c(O)c(O)c2)oc2cc(O)cc(O)c12 [M7]
- Diarrhea (general symptoms) during drug administration [1]: significant reduction in diarrhea
- Number of mice with no obvious diarrhea [1]: 4 mice
- Grading scores for chronic inflammation of colon: number of mice colons with score 0 ([1]; 100 mg/kg for 18 days): 3
- Degree of chronic colonic inflammation (pathological examination) ([1]; 100 mg/kg for 18 days, FIG. 3 and Table 1): significantly alleviated
- Colon length compared with model group [1, 5]: significantly longer
- Inhibitory effect on cell proliferation (cytotoxic effect) [2]: no significant inhibitory effect

Structure (SMILES): O=c1c(O[C@@H]2O[C@H](CO[C@@H]3O[C@H](CO)[C@@H](O)[C@H]3O)[C@H](O)[C@H](O)[C@H]2O)c(-c2cc(O)c(O)c(O)c2)oc2cc(O)cc(O)c12 [M13]
- Body weight compared with model group [1, 6]: significantly increased
- Colon length compared with model group [1, 7]: significantly increased

Structure (SMILES): O=c1c(O[C@@H]2O[C@H](CO[C@@H]3O[C@H](CO)[C@@H](O)[C@H](O)[C@@H]3O)[C@H](O)[C@H](O)[C@H]2O)c(-c2cc(O)c(O)c(O)c2)oc2cc(O)cc(O)c12 [M14]
- Body weight compared with model group [1, 6]: significantly increased
- Colon length compared with model group [1, 7]: significantly increased

Structure (SMILES): O=C(O)c1cc(/N=N/c2ccc(S(=O)(=O)Nc3ccccn3)cc2)ccc1O [SASP, sulfasalazine, reference compound]
- Diarrhea (general symptoms) during drug administration [1]: slight reduction in diarrhea
- Grading scores for chronic inflammation of colon: number of mice colons with score + ([1]; 100 mg/kg for 18 days): 1
- Grading scores for chronic inflammation of colon: number of mice colons with score ++ ([1]; 100 mg/kg for 18 days): 2

Structure (SMILES): CC(=O)Oc1ccccc1C(=O)O [aspirin, reference compound]
- Pathological analysis of colon tissue (colon cancer) [4]: alleviated to some extent
